Our source for the IC50 values is patent US8637509B2, “Azaindazoles” (GlaxoSmithKline LLC, priority 2010, dated 2014).

T1 sequence (Q15910 whole entry): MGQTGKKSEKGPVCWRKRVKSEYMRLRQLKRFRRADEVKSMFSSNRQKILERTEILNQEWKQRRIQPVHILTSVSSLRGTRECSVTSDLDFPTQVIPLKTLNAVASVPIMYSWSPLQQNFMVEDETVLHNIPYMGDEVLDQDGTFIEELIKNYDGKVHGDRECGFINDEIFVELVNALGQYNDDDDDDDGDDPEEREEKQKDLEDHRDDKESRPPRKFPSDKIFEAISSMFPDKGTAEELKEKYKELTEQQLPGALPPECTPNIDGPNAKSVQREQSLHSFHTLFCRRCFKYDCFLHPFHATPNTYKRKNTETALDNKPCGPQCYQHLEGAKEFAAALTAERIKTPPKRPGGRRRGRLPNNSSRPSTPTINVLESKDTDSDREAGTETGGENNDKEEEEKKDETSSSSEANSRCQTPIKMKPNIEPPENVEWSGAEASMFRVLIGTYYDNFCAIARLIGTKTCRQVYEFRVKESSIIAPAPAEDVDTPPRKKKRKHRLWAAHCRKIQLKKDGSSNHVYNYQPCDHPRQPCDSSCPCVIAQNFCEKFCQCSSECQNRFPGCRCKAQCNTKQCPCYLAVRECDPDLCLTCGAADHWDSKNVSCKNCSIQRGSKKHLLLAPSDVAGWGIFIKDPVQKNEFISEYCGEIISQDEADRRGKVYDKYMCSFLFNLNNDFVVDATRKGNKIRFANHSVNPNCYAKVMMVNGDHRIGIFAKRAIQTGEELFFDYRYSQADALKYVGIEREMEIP
T1 sequence (O75530 whole entry partner): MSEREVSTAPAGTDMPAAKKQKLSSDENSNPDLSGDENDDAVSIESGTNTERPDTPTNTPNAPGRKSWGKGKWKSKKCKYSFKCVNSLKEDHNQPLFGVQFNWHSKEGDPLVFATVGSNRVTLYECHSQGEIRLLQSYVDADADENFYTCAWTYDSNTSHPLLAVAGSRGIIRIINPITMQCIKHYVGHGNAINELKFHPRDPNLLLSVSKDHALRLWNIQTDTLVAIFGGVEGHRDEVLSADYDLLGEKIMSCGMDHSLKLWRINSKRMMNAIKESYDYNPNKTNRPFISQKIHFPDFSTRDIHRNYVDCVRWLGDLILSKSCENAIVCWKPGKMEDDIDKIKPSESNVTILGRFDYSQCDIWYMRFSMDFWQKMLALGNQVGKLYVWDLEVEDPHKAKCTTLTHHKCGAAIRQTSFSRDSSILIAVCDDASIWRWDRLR
T1 sequence (Q15022 whole entry partner): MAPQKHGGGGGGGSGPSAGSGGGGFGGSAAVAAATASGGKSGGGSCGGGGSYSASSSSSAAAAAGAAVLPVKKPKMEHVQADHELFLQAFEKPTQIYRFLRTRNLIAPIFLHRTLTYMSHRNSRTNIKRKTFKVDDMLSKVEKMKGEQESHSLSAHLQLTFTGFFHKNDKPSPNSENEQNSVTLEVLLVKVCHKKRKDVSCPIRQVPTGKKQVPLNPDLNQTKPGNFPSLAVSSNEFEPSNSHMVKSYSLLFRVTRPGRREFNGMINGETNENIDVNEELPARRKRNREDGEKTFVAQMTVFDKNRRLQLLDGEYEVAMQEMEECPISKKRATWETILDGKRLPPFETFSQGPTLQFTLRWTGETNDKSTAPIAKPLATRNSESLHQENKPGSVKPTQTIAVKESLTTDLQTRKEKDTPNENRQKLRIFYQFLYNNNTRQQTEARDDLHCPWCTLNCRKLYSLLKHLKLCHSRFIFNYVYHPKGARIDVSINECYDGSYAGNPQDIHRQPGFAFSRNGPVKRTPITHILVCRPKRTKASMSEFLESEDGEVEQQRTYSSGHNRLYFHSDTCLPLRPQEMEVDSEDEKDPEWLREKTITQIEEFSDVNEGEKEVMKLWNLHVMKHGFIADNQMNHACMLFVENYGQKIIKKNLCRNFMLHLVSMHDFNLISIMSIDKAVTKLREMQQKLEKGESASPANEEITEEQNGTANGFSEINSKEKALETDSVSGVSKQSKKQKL

The first assay concerns the target T1, EZH2 (Homo sapiens, UniProt Q15910).
T1 construct: GRITS37108
Nature of the assay: EZH2 methyltransferase SPA assay (3H-SAM, Hela nucleosomes). The format is biochemical.
Conditions: not given
Compound `Cc1[nH]c(=O)c(CNC(=O)c2cc(-c3ccncc3)nc3c2cnn3C(C)C)c(C)c1F` [Ex 20, N-[(5-Fluoro-4,6-dimethyl-2-oxo-1,2-dihydro-3-pyridinyl)methyl]-1-(1-methylethyl)-6-(4-pyridinyl]-1H-pyrazolo[3,4-b]pyridine-4-carboxamide] returned an IC50 of 4650 nM.

The assay is the same for the next values; noted with them: read-out: IC50.
Regarding `Cc1cc(C(C)C)c(CNC(=O)c2cc(C3CC3)nc3c2cnn3C(C)C)c(=O)[nH]1` [Ex 8, 6-Cyclopropyl-1-(1-methylethyl)-N-{[6-methyl-4-(1-methylethyl)-2-oxo-1,2-dihydro-3-pyridinyl]methyl}-1H-pyrazolo[3,4-b]pyridine-4-carboxamide], the IC50 came out at 167 nM.
For `CC(=O)Nc1ccc(-c2cc(C(=O)NCc3c(C)cc(C)[nH]c3=O)c3cnn(C(C)C)c3n2)cc1` [Ex 44, 6-[4-(acetylamino)phenyl]-N-[(4,6-dimethyl-2-oxo-1,2-dihydro-3-pyridinyl)methyl]-1-(1-methylethyl)-1H-pyrazolo[3,4-b]pyridine-4-carboxamide], the IC50 stood at 74 nM.
The same measure, in the same setting: under `Cc1cc(C)c(CNC(=O)c2cc(-c3cccnc3)nc3c2cnn3C(C)C)c(=O)[nH]1` [Ex 73, N-[(4,6-Dimethyl-2-oxo-1,2-dihydro-3-pyridinyl)methyl]-1-(1-methylethyl)-6-(3-pyridinyl)-1H-pyrazolo[3,4-b]pyridine-4-carboxamide] stands 533 nM; under `Cc1cc(C)c(CNC(=O)c2cc(-c3ccccc3[N+](=O)[O-])nc3c2cnn3C(C)C)c(=O)[nH]1` [Ex 124, N-[(4,6-Dimethyl-2-oxo-1,2-dihydro-3-pyridinyl)methyl]-1-(1-methylethyl)-6-(2-nitrophenyl)-1H-pyrazolo[3,4-b]pyridine-4-carboxamide], 1050 nM.
For the compound `Cc1cc(C)c(CNC(=O)c2cc(C3CC3)nc3c2c(C)nn3C(C)(C)C)c(=O)[nH]1` [Ex 107, 6-Cyclopropyl-1-(1,1-dimethylethyl)-N-[(4,6-dimethyl-2-oxo-1,2-dihydro-3-pyridinyl)methyl]-3-methyl-1H-pyrazolo[3,4-b]pyridine-4-carboxamide], the concentration for half-maximal inhibition (IC50) amounted to 75 nM.
As for `Cc1cc(C)c(CNC(=O)c2cc(-c3ccc4[nH]c(=O)[nH]c4c3)nc3c2cnn3C(C)C)c(=O)[nH]1` [Ex 80, N-[(4,6-Dimethyl-2-oxo-1,2-dihydro-3-pyridinyl)methyl]-1-(1-methylethyl)-6-(2-oxo-2,3-dihydro-1H-benzimidazol-5-yl)-1H-pyrazolo[3,4-b]pyridine-4-carboxamide], the IC50 amounted to 71 nM.
Take `Cc1cc(C)c(CNC(=O)c2cc(-c3cncc(NS(=O)(=O)c4ccccc4)c3)nc3c2cnn3C(C)C)c(=O)[nH]1` [Ex 65, N-[(4,6-Dimethyl-2-oxo-1,2-dihydro-3-pyridinyl)methyl]-1-(1-methylethyl)-6-{5-[(phenylsulfonyl)amino]-3-pyridinyl}-1H-pyrazolo[3,4-b]pyridine-4-carboxamide]: the IC50 turned out to be 55 nM.
Same read-out and setting: under `COc1ncc(-c2cc(C(=O)NCc3c(C)cc(C)[nH]c3=O)c3cnn(C(C)C)c3n2)cc1NS(=O)(=O)C1CC1` [Ex 64, 6-[5-[(Cyclopropylsulfonyl)amino]-6-(methyloxy)-3-pyridinyl]-N-[(4,6-dimethyl-2-oxo-1,2-dihydro-3-pyridinyl)methyl]-1-(1-methylethyl)-1H-pyrazolo[3,4-b]pyridine-4-carboxamide] stands 79 nM; under `Cc1cc(C)c(CNC(=O)c2cc(N)nc3c2cnn3C(C)C)c(=O)[nH]1` [Ex 6, 6-Amino-N-[(4,6-dimethyl-2-oxo-1,2-dihydro-3-pyridinyl)methyl]-1-(1-methylethyl)-1H-pyrazolo[3,4-b]pyridine-4-carboxamide], 695 nM; under `Cc1cc(C)c(CNC(=O)c2cc(Nc3ccc4[nH]c(=O)[nH]c4c3)nc3c2cnn3C(C)C)c(=O)[nH]1` [Ex 85, N-[(4,6-Dimethyl-2-oxo-1,2-dihydro-3-pyridinyl)methyl]-1-(1-methylethyl)-6-[(2-oxo-2,3-dihydro-1H-benzimidazol-5-yl)amino]-1H-pyrazolo[3,4-b]pyridine-4-carboxamide], 31 nM.
Consider `Cc1cc(-c2ccccc2)c(CNC(=O)c2cc(-c3ccncc3)nc3c2cnn3C(C)C)c(=O)[nH]1` [Ex 14, 1-(1-Methylethyl)-N-[(6-methyl-2-oxo-4-phenyl-1,2-dihydro-3-pyridinyl)methyl]-6-(4-pyridinyl)-1H-pyrazolo[3,4-b]pyridine-4-carboxamide], for which the half-inhibitory concentration (IC50) worked out at 735 nM.
On to `Cc1cc(C)c(CNC(=O)c2cc(-c3ccc(N4CCN(C)CC4)nc3)nc3c2c(C)nn3C(C)(C)C)c(=O)[nH]1` [Ex 87, 1-(1,1-Dimethylethyl)-N-[(4,6-dimethyl-2-oxo-1,2-dihydro-3-pyridinyl)methyl]-3-methyl-6-[6-(4-methyl-1-piperazinyl)-3-pyridinyl]-1H-pyrazolo[3,4-b]pyridine-4-carboxamide], for which the IC50 is 18 nM.
In the case of `COc1ccc(-c2cc(C(=O)NCc3c(C)cc(C)[nH]c3=O)c3c(C)nn(C(C)(C)C)c3n2)cc1` [Ex 121, 1-(1,1-Dimethylethyl)-N-[(4,6-dimethyl-2-oxo-1,2-dihydro-3-pyridinyl)methyl]-3-methyl-6-[4-(methyloxy)phenyl]-1H-pyrazolo[3,4-b]pyridine-4-carboxamide], the half-maximal inhibitory concentration (IC50) was 407 nM.
Regarding `Cc1cc(C)c(CNC(=O)c2cc(N3CCOCC3)nc3c2cnn3C(C)C)c(=O)[nH]1` [Ex 26, N-[(4,6-Dimethyl-2-oxo-1,2-dihydro-3-pyridinyl)methyl]-1-(1-methylethyl)-6-(4-morpholinyl)-1H-pyrazolo[3,4-b]pyridine-4-carboxamide], the IC50 is 673 nM.
As to `Cc1cc(C)c(CNC(=O)c2cc(C3CC3)nc3c2cnn3CCNS(C)(=O)=O)c(=O)[nH]1` [Ex 99, 6-Cyclopropyl-N-[(4,6-dimethyl-2-oxo-1,2-dihydro-3-pyridinyl)methyl]-1-{2-[(methylsulfonyl)amino]ethyl}-1H-pyrazolo[3,4-b]pyridine-4-carboxamide], the IC50 was determined as 25000 nM.
On to `Cc1cc(C)c(CNC(=O)c2cc(-c3ccc(N4CCN(C)CC4)nc3)nc3c2c(C)nn3C(C)C)c(=O)[nH]1` [Ex 27, N-[(4,6-Dimethyl-2-oxo-1,2-dihydro-3-pyridinyl)methyl]-3-methyl-1-(1-methylethyl)-6-[6-(4-methyl-1-piperazinyl)-3-pyridinyl]-1H-pyrazolo[3,4-b]pyridine-4-carboxamide], for which the half-maximal inhibitory concentration (IC50) amounted to 24 nM.
For `CNS(=O)(=O)c1ccc(-c2cc(C(=O)NCc3c(C)cc(C)[nH]c3=O)c3cnn(C(C)C)c3n2)cc1` [Ex 42, N-[(4,6-Dimethyl-2-oxo-1,2-dihydro-3-pyridinyl)methyl]-6-{4-[(methylamino)sulfonyl]phenyl}-1-(1-methylethyl)-1H-pyrazolo[3,4-b]pyridine-4-carboxamide], the half-maximal inhibitory concentration (IC50) stood at 56 nM.
Turning to `Cc1cc(C)c(CNC(=O)c2cc(-c3c[nH]c(=O)[nH]c3=O)nc3c2cnn3C(C)C)c(=O)[nH]1` [Ex 48, N-[(4,6-Dimethyl-2-oxo-1,2-dihydro-3-pyridinyl)methyl]-6-(2,4-dioxo-1,2,3,4-tetrahydro-5-pyrimidinyl)-1-(1-methylethyl)-1H-pyrazolo[3,4-b]pyridine-4-carboxamide], the IC50 amounted to 198 nM.
Regarding `Cc1cc(C)c(CNC(=O)c2cc(C(C)C)nc3c2cnn3C(C)C)c(=O)[nH]1` [Ex 37, N-[(4,6-Dimethyl-2-oxo-1,2-dihydro-3-pyridinyl)methyl]-1,6-bis(1-methylethyl)-1H-pyrazolo[3,4-b]pyridine-4-carboxamide], the 50% inhibitory concentration (IC50) was determined as 1100 nM.
